Experimental data from US9745328B2, “Flap modulators” (JANSSEN PHARMACEUTICA NV, priority 2013, dated 2017).
Where a name gives a salt, the structure may show the parent alone.

target: human FLAP (Homo sapiens (Human), UniProt P20292); experiment: FLAP binding assay (HTRF format); conditions: Table 5, human FLAP wild type
Outline: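 Samples were run in duplicate on each of two assay plates, the results were averaged, and the signal was expressed as an HTRF ratio.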

Chain of human FLAP (P20292 whole entry): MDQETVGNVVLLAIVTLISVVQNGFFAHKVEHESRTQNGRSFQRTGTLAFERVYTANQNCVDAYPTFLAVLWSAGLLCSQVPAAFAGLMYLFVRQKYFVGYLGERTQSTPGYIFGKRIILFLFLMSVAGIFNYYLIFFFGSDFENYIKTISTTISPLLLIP

Row | Ki [nM] | Structure (SMILES)
1 | 106 | Nc1cnc(-c2ccc(-c3cccnc3S(=O)(=O)C3CCNC3)cc2F)cn1 (racemic) [Example 803, 5-(2-Fluoro-4-(2-(pyrrolidin-3-ylsulfonyl)pyridin-3-yl)phenyl)pyrazin-2-amine hydrochloride]

same assay, conditions: Table 6 (additional runs), human FLAP wild type

Row | Ki [nM] | Structure (SMILES)
2 | 1.6 | CC1(NS(=O)(=O)c2ccccc2-c2ccc(-c3cnc(N)cn3)c(F)c2)CCC1 [Example 11, 4′-(5-Aminopyrazin-2-yl)-3′-fluoro-N-(1-methylcyclobutyl)biphenyl-2-sulfonamide]
3 | 1.9 | Nc1cnc(-c2ccc(-c3ccccc3S(=O)(=O)N[C@@H]3CCCC[C@H]3O)cc2F)cn1 [Example 85, 4′-(5-Aminopyrazin-2-yl)-3′-fluoro-N-[(1R,2R)-2-hydroxycyclohexyl]biphenyl-2-sulfonamide]
4 | 1060 | C[C@@H](O)CNS(=O)(=O)Cc1ccccc1-c1ccc(-c2cnc(N)cn2)c(F)c1 [Example 228, (R)-1-[4′-(5-Aminopyrazin-2-yl)-3′-fluorobiphenyl-2-yl]-N-[(2S)-2-hydroxypropyl]methanesulfonamide]
5 | 6.6 | C[C@@H](O)CNS(=O)(=O)c1ccccc1-c1ccc(-c2cnc(N)cn2)c(F)c1 [Example 97, (R)-4′-(5-aminopyrazin-2-yl)-3′-fluoro-N-(2-hydroxypropyl)-[1,1′-biphenyl]-2-sulfonamide]
6 | 156 | CC(C)(C)S(=O)(=O)c1ccccc1-c1ccc(-c2cnc(N)cn2)c(F)c1 [Example 194, 5-[2′-(tert-Butylsulfonyl)-3-fluorobiphenyl-4-yl]pyrazin-2-amine]
7 | 0.9 | Nc1cnc(-c2ccc(-c3ccccc3S(=O)(=O)NCC3CC3)cc2F)cn1 [Example 90, 4′-(5-Aminopyrazin-2-yl)-N-(cyclopropylmethyl)-3′-fluorobiphenyl-2-sulfonamide]
8 | 2.7 | Nc1cnc(-c2ccc(-c3ccccc3S(=O)(=O)N3CC(O)C3)cc2F)cn1 [Example 119, 1-{[4′-(5-Aminopyrazin-2-yl)-3′-fluorobiphenyl-2-yl]sulfonyl}azetidin-3-ol]
9 | 11.1 | CNS(=O)(=O)c1ccccc1-c1ccc(-c2cnc(N)cn2)c(F)c1 [Example 15, 4′-(5-Aminopyrazin-2-yl)-3′-fluoro-N-methylbiphenyl-2-sulfonamide]
10 | 141 | CN[C@@H]1CCN(S(=O)(=O)c2ccccc2-c2ccc(-c3cnc(N)cn3)c(F)c2)C1 [Example 126, (R)-5-(3-Fluoro-2′-{[3-(methylamino)pyrrolidin-1-yl]sulfonyl}biphenyl-4-yl)pyrazin-2-amine]
11 | 120 | CNC1CCN(S(=O)(=O)c2ccccc2-c2ccc(-c3cnc(N)cn3)c(F)c2)CC1 [Example 72, 5-{3-Fluoro-2′-{[4-(methylamino)piperidin-1-yl]sulfonyl}biphenyl-4-yl)pyrazin.-2-amine]
12 | 3.7 | Nc1cnc(-c2ccc(-c3ccccc3S(=O)(=O)N3CC(F)(F)C3)cc2F)cn1 [Example 52, 5-{2′-[(3,3-Difluoroazetidin-1-yl)sulfonyl]-3-fluorobiphenyl-4-yl}pyrazin-2-amine]
13 | 1.1 | Nc1cnc(-c2ccc(-c3ccccc3S(=O)(=O)NC3CCCCC3)cc2F)cn1 [Example 6, 4′-(5-Aminopyrazin-2-yl)-N-cyclohexyl-3′-fluorobiphenyl-2-sulfonamide]
14 | 0.8 | CC(C)CNS(=O)(=O)c1ccccc1-c1ccc(-c2cnc(N)cn2)c(F)c1 [Example 7, 4′-(5-Aminopyrazin-2-yl)-3′-fluoro-N-(2-methylpropyl)biphenyl-2-sulfonamide]
15 | 0.4 | Nc1cnc(-c2ccc(-c3ccccc3S(=O)(=O)N3c4ccccc4C[C@H]3CO)cc2F)cn1 [Example 135, (S)-(1-{[4′-(5-Aminopyrazin-2-yl)-3′-fluorobiphenyl-2-yl]sulfonyl}-2,3-dihydro-1H-indol-2-yl)methanol]
16 | 1.5 | CC(C)(C)[C@H](CO)NS(=O)(=O)c1ccccc1-c1ccc(-c2cnc(N)cn2)c(F)c1 [Example 150, (R)-4′-(5-aminopyrazin-2-yl)-3′-fluoro-N-(1-hydroxy-3,3-dimethylbutan-2-yl)-[1,1′-biphenyl]-2-sulfonamide]

Further lines, the molecule ahead of its results:

Row | Structure (SMILES) | Ki [nM]
17 | CC(C)(NS(=O)(=O)c1ccccc1-c1ccc(-c2cnc(N)nc2)c(F)c1)C(F)(F)F [Example 296, 4′-(2-Aminopyrimidin-5-yl)-3′-fluoro-N-(2,2,2-trifluoro-1,1-dimethylethyl)biphenyl-2-sulfonamide trifluoroacetic acid salt] | 3.1
18 | Nc1cnc(-c2ccc(-c3ccccc3S(=O)(=O)N3CCC(CCO)CC3)cc2F)cn1 [Example 69, 2-(1-{[4′-(5-Aminopyrazin-2-yl)-3′-fluorobiphenyl-2-yl]sulfonyl}piperidin-4-yl)ethanol] | 0.9
19 | CC(C)(C)OC(=O)NC1CCCN(S(=O)(=O)c2ccccc2-c2ccc(-c3cnc(N)cn3)c(F)c2)C1 (racemic) [Example 77, racemic tert-Butyl (1-{[4′-(5-aminopyrazin-2-yl)-3′-fluorobiphenyl-2-yl]sulfonyl}piperidin-3-yl)carbamate] | 3.2
20 | Nc1cnc(-c2ccc(-c3ccccc3S(=O)(=O)NC3(CO)CCCC3)cc2F)cn1 [Example 179] | 0.4
21 | Nc1ncc(-c2ccc(-c3ccccc3S(=O)(=O)N3CC(O)C3)cc2F)cn1 [Example 265, 1-{[4′-(2-Aminopyrimidin-5-yl)-3′-fluorobiphenyl-2-yl]sulfonyl}azetidin-3-ol trifluoroacetic acid salt] | 35.5
22 | Nc1cnc(-c2ccc(-c3ccccc3S(=O)(=O)N3CCCC(CCO)C3)cc2F)cn1 (racemic) [Example 71, racemic 2-(1-{[4′-(5-Aminopyrazin-2-yl)-3′-fluorobiphenyl-2-yl]sulfonyl}piperidin-3-yl)ethanol] | 1.9
23 | CC(C)(C)OC(=O)N1CC(O)(CNS(=O)(=O)c2ccccc2-c2ccc(-c3ccc(N)nc3)c(F)c2)C1 [Example 357, tert-butyl 3-((4′-(6-aminopyridin-3-yl)-3′-fluoro-[1,1′-biphenyl]-2-ylsulfonamido)methyl)-3-hydroxyazetidine-1-carboxylate] | 114
24 | Nc1ncc(-c2ccc(-c3ccccc3S(=O)(=O)N[C@H]3CCCNC3=O)cc2F)cn1 [Example 267, 4′-(2-Aminopyrimidin-5-yl)-3′-fluoro-N-[(3S)-2-oxopiperidin-3-yl]biphenyl-2-sulfonamide trifluoroacetic acid salt] | 185
25 | CC(C)C[C@@H](CO)NS(=O)(=O)c1ccccc1-c1ccc(-c2cnc(N)cn2)c(F)c1 [Example 79, 4′-(5-Aminopyrazin-2-yl)-3′-fluoro-N-[(1S)-1-(hydroxymethyl)-3-methylbutyl]biphenyl-2-sulfonamide] | 5.3
26 | CNS(=O)(=O)c1ccccc1-c1ccc(-c2cnc3[nH]ccc3n2)c(F)c1 [Example 379, 3′-Fluoro-N-methyl-4′-(5H-pyrrolo[2,3-b]pyrazin-2-yl)biphenyl-2-sulfonamide] | 1.3
27 | CC(C)(CO)CNS(=O)(=O)c1ccccc1-c1ccc(-c2cnc(N)nc2)c(F)c1 [Example 251, 4′-(2-Aminopyrimidin-5-yl)-3′-fluoro-N-(3-hydroxy-2,2-dimethylpropyl)biphenyl-2-sulfonamide] | 4.5

same assay, conditions: human FLAP wild type, Table 6 (additional runs)

Row | Ki [nM] | Structure (SMILES)
28 | 55.8 | Nc1cnc(-c2ccc(-c3ccc(C(F)(F)F)cc3F)cc2F)cn1 [Example 471, 5-[2′,3-Difiuoro-4′-(trifluoromethyl)biphenyl-4-yl]pyrazin-2-amine]
29 | 4.4 | Nc1cc(Oc2cc(C(F)(F)F)ccc2-c2ccc(-c3cnc(N)nc3)c(F)c2)ncn1 [Example 561, 5-{2′-[(6-Aminopyrimidin-4-yl)oxy]-3-fluoro-4′-(trifluoromethyl)biphenyl-4-yl}pyrimidin-2-amine]
30 | 1910 | Nc1cnc(-c2ccc(-c3ccccc3OCC(=O)O)cc2F)cn1 [Example 481, {[4′-(5-Aminopyrazin-2-yl)-3′-fluorobiphenyl-2-yl]oxy}acetic acid]
31 | 4.5 | Nc1cnc(-c2ccc(-c3ccccc3Oc3ccnc(N)n3)cc2F)cn1 [Example 533, 4-{[4′-(5-Aminopyrazin-2-yl)-3′-fluorobiphenyl-2-yl]oxy}pyrimidin-2-amine]
32 | 1.6 | Nc1cnc(-c2ccc(-c3ccccc3Oc3cc(N4CCC4)ncn3)cc2F)cn1 [Example 539, 5-{2′-[(6-Azetidin-1-ylpyrimidin-4-yl)oxy]-3-fluorobiphenyl-4-yl}pyrazin-2-amine]
33 | 106 | Nc1cnc(-c2ccc(-c3cccnc3S(=O)(=O)C3CCNC3)cc2F)cn1 (racemic) [Example 803, 5-(2-Fluoro-4-(2-(pyrrolidin-3-ylsulfonyl)pyridin-3-yl)phenyl)pyrazin-2-amine hydrochloride]
34 | 132 | N#Cc1ccccc1-c1ccc(-c2cnc(N)cn2)c(F)c1 [Example 701, 4′-(5-Aminopyrazin-2-yl)-3′-fluorobiphenyl-2-carbonitrile]

Further lines, the molecule ahead of its results:

Row | Structure (SMILES) | Ki [nM]
35 | CC(C)(C)NS(=O)(=O)c1ccccc1-c1ccc(-c2nnc(N)s2)c(F)c1 [Example 438, 4′-(5-amino-1,3,4-thiadiazol-2-yl)-N-(tert-butyl)-3′-fluoro-[1,1′-biphenyl]-2-sulfonamide] | 0.7
36 | Nc1ncc(-c2ccc(-c3cccnc3OC3CCS(=O)(=O)CC3)cc2F)cn1 [Example 648, 5-(4-{2-[(1,1-Dioxidotetranydro-2H-thiopyran-4-yl)oxy]pyridin-3-yl}-2-fluorophenyl)pyrimidin-2-amine] | 834
37 | Nc1cnc(-c2ccc(-c3ccccc3S(N)(=O)=O)c(F)c2F)cn1 [Example 464, 4′-(5-Aminopyrazin-2-yl)-2′,3′-difluorobiphenyl-2-sulfonamide] | 121
38 | CC(C)(C)NS(=O)(=O)c1ccccc1-c1ccc(-c2cnc3cc[nH]c3c2)c(F)c1 [Example 425, N-tert-Butyl-3′-fluoro-4′-(1H-pyrrolo[3,2-b]pyridin-6-yl)biphenyl-2-sulfonamide] | 2.3
39 | CS(=O)(=O)c1cc(F)ccc1-c1ccc(-c2cnc3[nH]ccc3n2)c(F)c1 [Example 489, 2-[3,4′-Difluoro-2′-(methylsulfonyl)biphenyl-4-yl]-5H-pyrrolo[2,3-b]pyrazine] | 19.6
40 | CC(C)(C)NS(=O)(=O)c1ccccc1-c1ccc(-c2ccc(N)cn2)c(F)c1 [Example 427, 4′-(5-Aminepyridin-2-yl)-N-tert-butyl-3′-fluoro-biphenyl-2-sulfonamide] | 43.9

same assay, conditions: human FLAP wild type, a calculated value of 0.000 indicates Ki less than 1 nM

Row | Ki [nM] | Structure (SMILES)
41 | < 1 | Nc1cnc(-c2ccc(-c3ccccc3S(=O)(=O)NC3(CO)CCCC3)cc2F)cn1 [Example 179]
42 | < 1 | Nc1cnc(-c2ccc(-c3ccccc3S(=O)(=O)N3c4ccccc4C[C@H]3CO)cc2F)cn1 [Example 135, (S)-(1-{[4′-(5-Aminopyrazin-2-yl)-3′-fluorobiphenyl-2-yl]sulfonyl}-2,3-dihydro-1H-indol-2-yl)methanol]
